# From patent publication US5726195A, “Aminoacyl adenylate mimics as novel antimicrobial and antiparasitic agents” (Cubist Pharmaceuticals, Inc., priority 1996, dated 1998)
# Legend:
# [1] = tested on: S. epidermidis ATCC 33501; test: Whole cell antimicrobial screen, MIC; assay type: cell-based; settings: Staphylococcus epidermidis, ATCC33501
# Method: (§1) Compounds were tested for antimicrobial activity against a panel of organisms according to standard procedures described by the National Committee for Clinical Laboratory Standards (NCCLS document M7-A3, Vol. 13, No. 25, 1993/NCCLS document M27-P, Vol. 12, No. 25, 1992). Compounds were dissolved in 100% dimethyl sulfoxide and were diluted to the final reaction concentration (0.1 μg/mL-500 μg/mL) in microbial growth media. In al cases the final concentration of dimethyl sulfoxide incubated with cells is less than or equal to 1%. For minimum inhibitory concentration (MIC) calculations, 2-fold dilutions of compounds were added to wells of a microtiter plate containing 5×10^4 bacteria or fungal cells in a final volume of 100 lambda of an appropriate media (Mueller-Hinton Broth; Haemophilus Test Media; Mueller-Hinton Broth+5% Sheep Blood; or […]). Plates were incubated overnight at an appropriate temperature (30° C.-37° C.) and optical densities (measure of cell growth) were measured using a commercial plate reader. The MIC value is defined as the lowest compound concentration inhibiting growth of the test organism.
# [2] = tested on: S. aureus ATCC 14154; test: Whole cell antimicrobial screen, MIC; assay type: cell-based; settings: Staphylococcus aureus, ATCC14154
# Method: as §1
# [3] = tested on: S. aureus ATCC 6538P; test: Whole cell antimicrobial screen, MIC; assay type: cell-based; settings: Staphylococcus aureus, ATCC6538P
# Method: as §1
# [4] = tested on: S. pyogenes ATCC 8668; test: Whole cell antimicrobial screen, MIC; assay type: cell-based; settings: Streptococcus pyogenes, ATCC8668
# Method: as §1
# [5] = tested on: S. saprophyticus ATCC 35552; test: Whole cell antimicrobial screen, MIC; assay type: cell-based; settings: Staphylococcus saprophyticus, ATCC35552
# Method: as §1
# [6] = tested on: E. faecium ATCC 6569; test: Whole cell antimicrobial screen, MIC; assay type: cell-based; settings: Enterococcus faecium, ATCC6569
# Method: as §1
# [7] = tested on: C. albicans ATCC 10231; test: Whole cell antimicrobial screen, MIC; assay type: cell-based; settings: Candida albicans, ATCC10231
# Method: as §1
# [8] = tested on: E. faecalis ATCC 33011; test: Whole cell antimicrobial screen, MIC; assay type: cell-based; settings: Enterococcus faecalis, ATCC33011
# Method: as §1
# [9] = molecular target: E. Coli. IleRS (isoleucyl-tRNA synthetase) (Escherichia coli, UniProt P00956); test: Inhibition of isoleucyl-tRNA synthetase (aminoacylation of tRNA with [3H]isoleucine); assay type: biochemical; settings: E. coli enzyme; irreversible inhibitors: values are 50% of the active enzyme concentration; read-out: IC50 E.Coli. IleRS
# Sequence of E. Coli. IleRS (isoleucyl-tRNA synthetase) (P00956 whole entry): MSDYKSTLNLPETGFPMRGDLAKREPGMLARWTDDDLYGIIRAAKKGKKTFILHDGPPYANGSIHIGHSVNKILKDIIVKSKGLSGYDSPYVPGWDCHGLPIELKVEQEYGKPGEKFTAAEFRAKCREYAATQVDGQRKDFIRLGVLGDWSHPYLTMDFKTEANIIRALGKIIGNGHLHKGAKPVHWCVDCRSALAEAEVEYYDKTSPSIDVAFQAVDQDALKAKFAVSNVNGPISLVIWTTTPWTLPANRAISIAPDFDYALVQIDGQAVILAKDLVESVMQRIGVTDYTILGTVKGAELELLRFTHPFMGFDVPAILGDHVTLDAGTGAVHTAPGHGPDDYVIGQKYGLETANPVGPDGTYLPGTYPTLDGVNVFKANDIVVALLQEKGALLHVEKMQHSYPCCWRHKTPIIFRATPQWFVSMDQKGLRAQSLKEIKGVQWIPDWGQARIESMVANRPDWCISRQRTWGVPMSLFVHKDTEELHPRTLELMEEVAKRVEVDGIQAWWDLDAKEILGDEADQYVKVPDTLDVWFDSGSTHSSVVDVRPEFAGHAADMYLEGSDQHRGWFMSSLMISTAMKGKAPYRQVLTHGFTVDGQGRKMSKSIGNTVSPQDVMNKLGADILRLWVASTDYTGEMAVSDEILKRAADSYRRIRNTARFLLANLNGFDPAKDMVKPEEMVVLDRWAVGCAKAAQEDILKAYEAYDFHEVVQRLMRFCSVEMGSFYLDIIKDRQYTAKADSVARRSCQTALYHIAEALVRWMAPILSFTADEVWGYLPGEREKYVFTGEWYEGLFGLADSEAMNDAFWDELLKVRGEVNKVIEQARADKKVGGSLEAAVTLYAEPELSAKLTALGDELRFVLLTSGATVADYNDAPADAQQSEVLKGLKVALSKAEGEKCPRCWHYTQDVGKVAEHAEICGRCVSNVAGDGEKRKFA
# Method: The extent of aminoacylation of tRNA with isoleucine catalyzed by isoleucyl-tRNA synthetase enzyme was measured by monitoring the incorporation of [3H] isoleucine into trichloroacetic acid-precipitable tRNA in the presence of a compound of Formula I, as compared with activity in the absence of inhibitor. The isoleucyl-tRNA synthetase enzymes are well known in the prior art and can be obtained and purified by known methods (for example see: D. Kern et at., Biochimie, 61, 1257-1272 (1979) and J. Gilbart et al., Antimicrobial Agents and Chemotherapy, 37 (1), 32-38 (1993)).
# Isoleucyl-tRNA synthetase enzyme (0.08-2.0 nM, preferably, 0.4 nM) was first pre-incubated at 25° C. with 0.05 mg/ml bovine serum albumin, 10 mM DTT, 2.5% dimethyl sulfoxide, with or without a compound of Formula I, for 20 minutes. At this point a substrate solution (a solution containing the following: ATP, [^3 H]isoleucine, tRNA, HEPES, magnesium chloride, and potassium chloride) was added to give a final concentration of 0.0286 mg/ml bovine serum albumin, 5.7 mM DTT, 4 mM ATP, 5-20 μM [^3 H] isoleucine (1-15 Ci/mmol), 90 μM crude tRNA or 2 μM isoleucine specific tRNA, 1.4% dimethyl sulfoxide, 30 mM HEPES (pH 7.5), 10 mM magnesium chloride, and 50 mM potassium chloride and incubated at 25° C. Aliquots were removed at selected times (e.g. 5, 10, 20 minutes) and applied to 3MM filter paper discs (Whatman) and then dropped into 5% (wt/vol) trichloroacetic acid for >5 minutes. Filters were washed for three 10-minute periods in 5% trichloroacetic acid, rinsed in 95% ethanol and diethyl ether, and radioactivity was measured with Betafluor™ (National Diagnostics) by liquid scintillation counting.
# Inhibitor activity is reported in Table II as an IC50 value (inhibitor concentration causing 50% inhibition of enzyme activity) per a known amount of active enzyme. In the case of irreversible inhibitors (1:1 stoichiometry) these values are 50% of the active enzyme concentration. The IC50 (in nM, E. coli) values of representative compounds of the present invention are listed in the second column of Table II.
# [10] = tested on: M. catarrhalis ATCC 25240; test: Whole cell antimicrobial screen, MIC; assay type: cell-based; settings: Moraxella catarrhalis, ATCC25240
# Method: as §1
# [11] = tested on: B. subtilis ATCC 6633; test: Whole cell antimicrobial screen, MIC; assay type: cell-based; settings: Bacillus subtilis, ATCC6633
# Method: as §1
# [12] = tested on: K. pneumonia ATCC 4352; test: Whole cell antimicrobial screen, MIC; assay type: cell-based; settings: Klebsiella pneumoniae, ATCC4352
# Method: as §1
Compound,MIC [1],MIC [2],MIC [3],MIC [4],MIC [5],MIC [6],MIC [7],MIC [8],IC50 [9],MIC [10],MIC [11],MIC [12]
CC[C@H](C)[C@H](N)C(=O)NS(=O)(=O)OC[C@H]1O[C@@H](CCn2nnc(-c3ccc(Sc4ccccc4)cc3)n2)[C@H](O)[C@@H]1O [IX],5 µg/mL,50 µg/mL,25 µg/mL,0.5 µg/mL,25 µg/mL,10 µg/mL,> 500 µg/mL,500 µg/mL,5 nM,–,–,–
CC[C@H](C)[C@H](N)C(=O)NS(=O)(=O)OC[C@H]1O[C@@H](CCn2nnc(-c3ccc(Oc4ccc([N+](=O)[O-])s4)cc3)n2)[C@H](O)[C@@H]1O [XXXI],5 µg/mL,10 µg/mL,5 µg/mL,4 µg/mL,2 µg/mL,100 µg/mL,–,> 500 µg/mL,1.3 nM,–,–,–
CC[C@H](C)[C@H](N)C(=O)NS(=O)(=O)OC[C@H]1O[C@@H](CCn2nnc(-c3ccc(-c4ccccc4)cc3C)n2)[C@H](O)[C@@H]1O [XXI],50 µg/mL,500 µg/mL,100 µg/mL,–,50 µg/mL,500 µg/mL,–,> 500 µg/mL,0.5 nM,< 50 µg/mL,100 µg/mL,100 µg/mL
CC[C@H](C)[C@H](N)C(=O)NS(=O)(=O)OC[C@H]1O[C@@H](CCn2nnc(-c3ccc(OCc4ccc([N+](=O)[O-])s4)cc3)n2)[C@H](O)[C@@H]1O [XVIII],5 µg/mL,25 µg/mL,5 µg/mL,2 µg/mL,5 µg/mL,> 500 µg/mL,100 µg/mL,> 500 µg/mL,0.6 nM,–,–,–
